The nature of assay [1]: Constant composition HAP crystal growth inhibition. To be noted: for Rate of HAP crystal growth: 37 °C, uninhibited rate 9.09; for Reduction of HAP crystal growth rate: concentration of 3.1×10^-5 M. Here is the method: Hydroxyapatite seed crystals were prepared from calcium nitrate and potassium dihydrogen phosphate, as detailed elsewhere. The specific surface area, 34.9 m2 g-1, was determined by BET nitrogen adsorption using a 30/70 N2/He mixture (Monosorb, Quantachrome Corp). HAP crystals in the form of a suspension in water (41.8 g L-1) were used for the crystal growth experiments.
Solutions were prepared using triply distilled carbon dioxide-free water and filtered before use through washed 0.22 μm filters (Millipore, Bedford, Mass.). Calcium concentrations were determined either complexometrically by EDTA titration with Eriochrome Black-T as indicator, or by atomic absorption (Perkin-Elmer, model 3100, Norwich, Conn.). Carbon dioxide-free potassium hydroxide solutions were prepared from washed Reagent grade pellets in a nitrogen atmosphere.
Crystal growth experiments were made in magnetically-stirred water-jacketed Pyrex vessels at 37.0±0.05° C. with ionic strength, I=0.15 mol L^−1, adjusted by the addition of sodium chloride. Supersaturated solutions were prepared by introducing calcium chloride solution, followed by potassium dihydrogen phosphate solution. The pH was adjusted to the required value by the slow addition of potassium hydroxide solutions. During the reactions, carbon dioxide was excluded by bubbling with presaturated nitrogen gas. After equilibration, 0.5 mL of the HAP slurry was introduced to initiate the reaction. Since the nucleation and growth of crystals consume solution lattice ions, the lowering of pH was used to trigger the addition of two titrant solutions that served to maintain constant the pH, the concentrations of calcium and phosphate and the ionic strength of the solution. A glass electrode (Orion, model 9101), standardized using two NBS buffer solutions at pH=7.386 and 4.028 at 37° C., was used to control titrant addition through a potentiostat. The total calcium concentration in all experiments was 6.00×10^−4 mol L^−1 with a calcium/phosphate molar ratio of 1.67, so as to achieve a supersaturation with respect to HAP of σ=5.55 (as defined in Eq. (1)), as computed from mass balance, proton dissociation, electroneutrality, and equilibrium expressions involving calcium and phosphate species.
In Eq. (1), v is the number of ions per formula unit of precipitating phase and IP and KSO are, respectively, the ionic and solubility products of HAP.
During the reactions, samples were withdrawn periodically, filtered (0.22 μm Millipore filter) and analyzed for calciwn by atomic absorption and for phosphate spectrophotometrically (Varian, Cary 210) as the phosphovanadomolybdate complex in order to verify the constancy of the solution composition. Solid phases were examined by X-ray powder diffraction, XRD, (Siemens Nicolet/Nic spectrometer, CuK radiation with Ni filter=1.540; 2 from 3o to 45o), by scanning electron microscopy (SEM at 20 kV; JEOL JSM-5300, Noran Instrumental Inc. Middleton, Wis.) and by diffuse reflectance infared fourier transform spectroscopy (FTR, Perkin Elmer 1760×Fr-IR spectrometer). Plots of mineralization were calculated from plots of titrant volumes as a function of time as described previously.
It is quite well established that strong inhibitors of crystal growth, such as the phosphonates, act by blocking, through adsorption, active growth sites at the crystal surfaces. Commonly, inhibition kinetics data are interpreted in terms of a simple Langmuir adsorption model. Assuming that the adsorbed fullerene molecules occupy a fraction, θ, of the active growth sites, thereby preventing them from participating in the growth, the growth rate R can be written in terms of the uninhibited rate Ro (Eq. (2)): […]

For assay [2] the following is noted: cited from earlier work.
[3] abbreviates: Concentration 1.0 × 10^−6 mol/L.

Like-named read-outs stand apart in the source and are kept apart here.

For “4,4-bisphosphono-2-(polyhdroxyl-1,2-dihdro-1,2-methanofullerene[60]-61-carboxamido)butyric Acid [C60(OH)16AMBP]”, the “Rate of HAP crystal growth” value is given as 7.67 10^−8 mol min^−1 m^−2 in assay [1] (C60(OH)16AMBP 0.39 × 10^−6 mol L^−1); 6.51 10^−8 mol min^−1 m^−2 in assay [1] (C60(OH)16AMBP 0.77 × 10^−6 mol L^−1); 4.55 10^−8 mol min^−1 m^−2 in assay [1] (C60(OH)16AMBP 1.16 × 10^−6 mol L^−1); 3.77 10^−8 mol min^−1 m^−2 in assay [1] (C60(OH)16AMBP 1.54 × 10^−6 mol L^−1); 2.83 10^−8 mol min^−1 m^−2 in assay [1] (C60(OH)16AMBP 1.93 × 10^−6 mol L^−1); 2.46 10^−8 mol min^−1 m^−2 in assay [1] (C60(OH)16AMBP 2.32 × 10^−6 mol L^−1). Moreover, the results for the “Rate of HAP crystal growth” value in assay [1] (C60(OH)16AMBP 2.7 × 10^−6 mol L^−1), in assay [1] (C60(OH)16AMBP 3.09 × 10^−6 mol L^−1) and in assay [1] (C60(OH)16AMBP 3.47 × 10^−6 mol L^−1) were 1.92 10^−8 mol min^−1 m^−2, 1.57 10^−8 mol min^−1 m^−2 and 1.23 10^−8 mol min^−1 m^−2, respectively. Further, the figures for the “Percent Reduction in Growth Rate” value in assay [1] (setting [3]) and in assay [1] (Concentration 3.5 × 10^−6 mol/L) were 50% and 87%, respectively. The “Reduction of HAP crystal growth rate” value in assay [1] was found to be 87%.
Fullerenol[60] [C60(OH)30]: the “Rate of HAP crystal growth” value in assay [1] (C60(OH)30 0.41 × 10^−6 mol L^−1) is 8.31 10^−8 mol min^−1 m^−2; in assay [1] (C60(OH)30 0.81 × 10^−6 mol L^−1), 7.8 10^−8 mol min^−1 m^−2; in assay [1] (C60(OH)30 1.22 × 10^−6 mol L^−1) it was 6.55 10^−8 mol min^−1 m^−2; in assay [1] (C60(OH)30 1.63 × 10^−6 mol L^−1), 5.94 10^−8 mol min^−1 m^−2; in assay [1] (C60(OH)30 2.03 × 10^−6 mol L^−1), 5.7 10^−8 mol min^−1 m^−2; in assay [1] (C60(OH)30 2.44 × 10^−6 mol L^−1) it was 4.65 10^−8 mol min^−1 m^−2. The “Rate of HAP crystal growth” value in assay [1] (C60(OH)30 2.85 × 10^−6 mol L^−1) is recorded as 4.07 10^−8 mol min^−1 m^−2; in assay [1] (C60(OH)30 3.25 × 10^−6 mol L^−1), 3.97 10^−8 mol min^−1 m^−2; in assay [1] (C60(OH)30 3.66 × 10^−6 mol L^−1), 3.85 10^−8 mol min^−1 m^−2; in assay [1] (C60(OH)30 4.07 × 10^−6 mol L^−1), 2.64 10^−8 mol min^−1 m^−2; in assay [1] (C60(OH)30 4.47 × 10^−6 mol L^−1), 2.49 10^−8 mol min^−1 m^−2. The “Percent Reduction in Growth Rate” value in assay [1] (setting [3]) is recorded as 28%. The “Affinity Constant” value in assay [1] (Langmuir adsorption model, slope of Ro/R versus concentration) stood at 414000 L/mol. Moreover, the “Reduction of HAP crystal growth rate” value in assay [1] came to 58%.
In the case of `CC(O)(P(=O)(O)O)P(=O)(O)O` [CH3C(OH)[P(O)(OH)2]2, 1-hydroxyethylidene-1,1-diphosphonic acid], in assay [2] (setting [3]), the “Percent Reduction in Growth Rate” value is recorded as 69^ref 29%. The “Affinity Constant” value in assay [2] was 13.3 × 10^5 ref 29 L mol^−1.
